Assay results published in ChEMBL document CHEMBL1201862, “PubChem BioAssay data set” (2004).
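Following 48 hours of exposure in 96-well plates, responses at five concentrations were used to interpolate endpoints linearly. GI50 = concentration required for 50% inhibition of growth.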 The source made the active and inactive calls. No stated cut-off is given here; in the data, active = GI50 up to about 1.1 µM and inactive = higher.

Columns and labels:
Test in all cases: inhibition of tumour cell growth, NCI panel, 48 h
COLO 205 = tested on: COLO 205
RXF 393 = tested on: RXF 393
NCI/ADR-RES = tested on: NCI/ADR-RES
M14 = tested on: M14
DU-145 = tested on: DU-145
HL-60 = tested on: HL-60
SNB-19 = tested on: SNB-19
786-0 = tested on: 786-0
MCF7 = tested on: MCF7
MOLT-4 = tested on: MOLT-4
UACC-257 = tested on: UACC-257
T47D = tested on: T47D
SR = tested on: SR
RPMI-8226 = tested on: RPMI-8226
SK-MEL-2 = tested on: SK-MEL-2
OVCAR-5 = tested on: OVCAR-5
LOX IMVI = tested on: LOX IMVI
A549 = tested on: A549
KM12 = tested on: KM12
Hs-578T = tested on: Hs-578T

Compound | GI50 (COLO 205) | GI50 (RXF 393) | GI50 (NCI/ADR-RES) | GI50 (M14) | GI50 (DU-145) | GI50 (HL-60) | GI50 (SNB-19) | GI50 (786-0) | GI50 (MCF7) | GI50 (MOLT-4) | GI50 (UACC-257) | GI50 (T47D) | GI50 (SR) | GI50 (RPMI-8226) | GI50 (SK-MEL-2) | GI50 (OVCAR-5) | GI50 (LOX IMVI) | GI50 (A549) | GI50 (KM12) | GI50 (Hs-578T)
CC1(C)OC2C(O)C(CO)OC2(C(F)F)O1 (configuration not stated) | > 100 µM (inactive) | > 100 µM (inactive) | > 100 µM (inactive) | > 100 µM (inactive) | > 100 µM (inactive) | > 100 µM (inactive) | > 47.1 µM (inactive) | > 100 µM (inactive) | > 100 µM (inactive) | > 100 µM (inactive) | > 100 µM (inactive) | > 100 µM (inactive) | > 100 µM (inactive) | > 100 µM (inactive) | > 100 µM (inactive) | > 100 µM (inactive) | > 100 µM (inactive) | > 100 µM (inactive) | > 100 µM (inactive) | > 100 µM (inactive)
Ic1cccc(/C=C/CN2CCN(CCOC(c3ccccc3)c3ccccc3)CC2)c1 | 8.51 µM (inactive) | 10.7 µM (inactive) | 16 µM (inactive) | 14.6 µM (inactive) | 13.2 µM (inactive) | 8.91 µM (inactive) | 16.3 µM (inactive) | 15.7 µM (inactive) | 14.6 µM (inactive) | 5.32 µM (inactive) | 15.7 µM (inactive) | 10.6 µM (inactive) | 4.16 µM (inactive) | 3.01 µM (inactive) | 17.7 µM (inactive) | 16.7 µM (inactive) | 13.2 µM (inactive) | 17.5 µM (inactive) | 14.9 µM (inactive) | 28 µM (inactive)
COc1ccc(OC)c2c1C=C[C@H](C1(C)SCCS1)C2C(C)=O (some centres not stated) | > 10 µM (inactive) | 29.4 µM (inactive) | 32.2 µM (inactive) | 31.2 µM (inactive) | 28.9 µM (inactive) | 18.2 µM (inactive) | 27.4 µM (inactive) | 31.7 µM (inactive) | 35.4 µM (inactive) | 19.7 µM (inactive) | 35.6 µM (inactive) | 24.2 µM (inactive) | 19.6 µM (inactive) | 18.6 µM (inactive) | – | 21.3 µM (inactive) | 9.84 µM (inactive) | 34.1 µM (inactive) | 32.4 µM (inactive) | 17.2 µM (inactive)
CCOC(=O)C1(Cc2ccccc2)Cc2cc3c(cc2C1)CCC3 | 19.3 µM (inactive) | – | 48.1 µM (inactive) | 29.5 µM (inactive) | 44.6 µM (inactive) | 23.8 µM (inactive) | 55.8 µM (inactive) | 38.1 µM (inactive) | 23 µM (inactive) | 17.5 µM (inactive) | 40.7 µM (inactive) | 26.7 µM (inactive) | 23.9 µM (inactive) | 20.6 µM (inactive) | 12.8 µM (inactive) | 25.2 µM (inactive) | 18.8 µM (inactive) | 36.8 µM (inactive) | 31.9 µM (inactive) | 22.3 µM (inactive)
C=C(C)C12CC(COC(=O)c3ccccc3)C34OC5(OC1C3C1OC1(CO)C(O)C1(O)C(OC(=O)c3ccccc3)C(C)C(C(C)CCCCCCC5O)C14)O2 (configuration not stated) | < 0.01 µM (active) | 52.6 µM (inactive) | 42.4 µM (inactive) | 27.2 µM (inactive) | 53.8 µM (inactive) | – | > 100 µM (inactive) | > 61.8 µM (inactive) | 72.6 µM (inactive) | – | 49.3 µM (inactive) | > 87.9 µM (inactive) | 18.5 µM (inactive) | 18.8 µM (inactive) | > 100 µM (inactive) | 88.7 µM (inactive) | 66.5 µM (inactive) | – | 40.8 µM (inactive) | 26.5 µM (inactive)
COP(=O)(OC)/C(=C/c1c[nH]c2ccccc12)C(=O)O | > 100 µM (inactive) | > 100 µM (inactive) | > 100 µM (inactive) | > 100 µM (inactive) | > 100 µM (inactive) | > 100 µM (inactive) | > 100 µM (inactive) | > 100 µM (inactive) | > 100 µM (inactive) | > 100 µM (inactive) | – | > 100 µM (inactive) | > 100 µM (inactive) | > 100 µM (inactive) | > 100 µM (inactive) | > 100 µM (inactive) | > 100 µM (inactive) | > 100 µM (inactive) | > 100 µM (inactive) | > 100 µM (inactive)
Nn1c(Cc2ccccc2)n[nH]c1=O | > 100 µM (inactive) | – | > 100 µM (inactive) | > 100 µM (inactive) | > 100 µM (inactive) | > 100 µM (inactive) | > 100 µM (inactive) | > 100 µM (inactive) | > 100 µM (inactive) | > 100 µM (inactive) | > 100 µM (inactive) | > 100 µM (inactive) | > 100 µM (inactive) | > 100 µM (inactive) | > 100 µM (inactive) | > 100 µM (inactive) | > 100 µM (inactive) | > 100 µM (inactive) | > 100 µM (inactive) | > 100 µM (inactive)
NC(Cc1nnn[nH]1)C(=O)O (configuration not stated) | > 100 µM (inactive) | > 100 µM (inactive) | > 100 µM (inactive) | > 100 µM (inactive) | > 100 µM (inactive) | – | > 100 µM (inactive) | > 100 µM (inactive) | > 100 µM (inactive) | > 100 µM (inactive) | > 100 µM (inactive) | > 100 µM (inactive) | > 100 µM (inactive) | > 100 µM (inactive) | > 100 µM (inactive) | > 100 µM (inactive) | > 100 µM (inactive) | > 100 µM (inactive) | > 100 µM (inactive) | > 100 µM (inactive)
